According to patent publication US20190183910A1, “ENHANCING DNA REPAIR AND PREVENTING AGING AND ITS CONSEQUENCES IN REPRODUCTIVE AND OTHER CELLS” (NEW YORK MEDICAL COLLEGE, priority 2016, published 2019):

Assays:
[1] = test system: human sperm; test: Neutral comet assay on human sperm; assay type: cell-based
[2] = test system: BRCA1; test: qRT-PCR DNA DSB repair gene expression in mouse sperm lysates, BRCA1; assay type: cell-based
Description: (§1) Treatment was performed with genotoxic stress (1 mM H2O2), S1P (200 μM), and S1P with genotoxic stress and control in culture for one hour. Also, the use of an ATM inhibitor was utilized (10 μM) (KU-55593, Abcam) (Li et al., 2014). We assessed DNA damage, apoptosis, and chromatin integrity. We also studied the DNA DSB repair gene expression by qRT-PCR in sperm lysates.
(§2) Sperm pellets previously snap-frozen in PBS were thawed. RNA was extracted using the trizol method (Rio et al., 2010). The quality and quantity of the RNA were measured with NanoDrop 2000 from Thermo Scientific. RNA (2 μg) from each sample was taken for reverse transcription with dTVN and N9 primers and SuperScript III reverse transcriptase, all procured from Invitrogen. The resulting cDNA was used to perform real-time qPCR with SYBR Green on an Applied Biosystems 7900HT Real-Time PCR machine was used. To determine the relative expression of various DNA repair genes in mouse sperm, we used the ΔΔCt method, which makes use of the expression of housekeeping genes. GAPDH was used as housekeeping gene. Primers were procured from Integrated DNA technologies (IDT) (Table 3).

[3] = test system: RAD50; test: qRT-PCR DNA DSB repair gene expression in mouse sperm lysates, RAD50; assay type: cell-based; conditions: S1P treatment, no ATM inhibitor
Description: as §1, §2

[4] = test system: mouse sperm; test: Susceptibility of DNA to denaturation by AO staining in mouse sperm; assay type: cell-based; conditions: as a result of S1P treatment
Description: as §1
DNA integrity of mouse sperm were assessed via flow cytometry using acridine orange (AO) staining (Hawley and Hawley, 2004). AO fluoresces green when attached to native DNA, and fluoresces red when attached to fragmented DNA. Basically, after induction of denaturation by heat or acid the denatured DNA (ssDNA) stains metachromatically red with AO while dsDNA stains green. When the sample has ≥50% green fluorescence, the sample is of good quality. Similarly, AO was used to assess sperm chromatin structure by measuring its intensity of fluorescence, which is the ratio of red/(red+green) yields the percentage of DNA fragmentation (also known as DNA fragmentation index, or DFI %).

[5] = in vivo continuous or intermittent administration to mice (Soleimani et al., 2011; Li et al, 2014); cited from earlier work
[6] = test system: mouse sperm; test: Apoptosis by FLICA (activated caspases) in mouse sperm; assay type: cell-based; conditions: as a result of S1P treatment
Description: as §1
Levels of activated caspases were detected in mouse sperm samples using fluorescein-labelled inhibitors of caspases (FLICA). This cell-permeable and non-cytotoxic caspase inhibitor binds covalently to active caspases. The fluorogenic substrate becomes fluorescent on cleavage by the caspases. The inhibitors were used with the appropriate controls according to the kit instructions provided by the manufacturer (ImmunoChemistry Technologies). A 150-fold stock solution of the inhibitor was prepared in dimethylsulphoxide (DMSO). It was further diluted in phosphate-buffered saline (PBS) to yield a 30-fold working solution. Sperm samples (300 μl) were incubated at 37° C. for 1 hr with 10 μl of the working solution and subsequently washed twice with PBS. After labeling with FLICA, 1% propidium iodide (PI) in PBS was used to assess dead cells. All samples were analyzed directly by flow cytometry to detect caspase activity (Bedner et al., 2000; Darzynkiewicz et al., 2011).

[7] = test system: mouse sperm; test: Neutral comet assay on mouse sperm; assay type: cell-based; conditions: for percent tail DNA, neutral comet: mouse sperm, n=9, mean±SEM
Description: as §1
Slides were prepared 48 hours prior to experimentation by coating normal glass microscope slides with 500 μl normal melting point agar (NMPA, 0.5% w/v in PBS) solution and left to dry at room temperature for no less than 48 hours. Once samples were obtained, 10 μl of mouse sperm suspension was mixed with 90 μl of 0.5% low melting point agar (LMPA). Then, this 100 μl solution was added to the NMPA-coated slides. Coverslips were added and slides were placed on a metallic tray on ice and in the dark for 5 minutes. The cover slips were then removed and another layer of LMPA was added. Cover slips were subsequently replaced before the LMPA hardened. Slides were then kept in the dark on ice again for another 5 minutes. After ten minutes, the cover slips were removed and slides were placed in staining jars containing ice cold lysing solution (2.5 M NaCl, 100 mM EDTA, sodium N-laurylsacrosinate [SLS]. [1% w/v] and 10 mM Trizma base pH10, and 1% Triton-X-100 and 10% DMSO [immediately adding before use]) for 1 hour at 4° C. in a dark place.
After this lysis step, the slides were washed three times for 5 minutes with the cold electrophoresis buffer (0.089 M Tris base, 0.089 M boric acid and 2 mM EDTA [pH 8.3]), and then placed flatly in the electrophoresis tank face up for 30 minutes. This incubation period was used to achieve the unwinding of the DNA. Electrophoresis was then performed at 18 V for 60 minutes. After this, slides were washed twice in PBS for 5 minutes each. Before analysis could occur, the sperm within the slides needed to be fixed by two 10 minute washes in ethanol, and then air drying at room temperature. Ethidium bromide (50 μl at 10 μg/ml in water) was then added on the slide, and sealed with a cover slip. Slides were kept moist, wrapped in aluminum foil to prevent light exposure, and stored at 4° C. until analysis (Smart et al., 2008).
Slides from both alkaline and neutral comets were imaged by fluorescence microscopy using a Nikon OPTIPHOT microscope. ImageJ was used for comet assay analysis, which calculated tail length, tail moment, and % of DNA in the tail. […] The comets were “on scale” for the calculations to be correct (the brightest pixels of interest were below 255 on an 8-bit scale). […] To analyze the slides, an oval around the sperm head was drawn and calculated and then an oval around the sperm tail was drawn and calculated. […] It was calculated as the Pythagorean distance between two points. […]

[8] = test system: mouse sperm; test: Reactive oxygen species in mouse sperm; assay type: cell-based; conditions: as a result of S1P treatment
Description: as §1

## CCCCCCCCCCCCC/C=C/[C@@H](O)[C@@H](N)COP(=O)(O)O [S1P, sphingosine 1 phosphate]
[1]; S1P-treated human sperm with ATM inhibitor
  DNA damage, neutral comet: no significant difference
[1]; S1P-treated human sperm without ATM inhibitor
  DNA damage, neutral comet: no significant difference
[2]; S1P alone, n=9, mean±SEM
  BRCA1 expression (qRT-PCR): 0.471±0.602
[2]; S1P in the presence of genotoxic stress, n=9, mean±SEM
  BRCA1 expression (qRT-PCR): 0.755±0.378
[2]; S1P treatment with ATM inhibitor
  BRCA1 expression (qRT-PCR): blocked the S1P induced increase
[3]
  RAD50 expression (qRT-PCR): no significant difference
[4]
  susceptibility of DNA to denaturation by AO staining: no significant difference
[5]
  side effects: no detectable side effects
[6]
  percentage of apoptosis by FLICA: no significant difference
[7]; S1P-treated mouse sperm with ATM inhibitor
  DNA damage, neutral comet: no significant difference
[7]; S1P alone, without ATM inhibitor
  percent tail DNA, neutral comet: 18.5±0.59%
[7]; S1P with H2O2, without ATM inhibitor
  percent tail DNA, neutral comet: 18.8±0.73%
[8]
  reactive oxygen species: no significant difference
